# Test results published in ChEMBL document CHEMBL6115007, “Synthesis and in vitro and in vivo evaluation of novel bivalent quinolines as antitumor agents via targeting autophagy in cervical cancer” (Eur J Med Chem, 2025).
# Active and inactive are the calls of the source. The calls are words filed in the database; no cut-off is given here.
# Assays:
# Ca-Ski [1] = assay: Antiproliferative activity against human Ca Ski cells assessed as inhibition of cell viability incubated for 24 hrs by CCK8 assay; assay type: functional, cell-based
# SiHa [2] = assay: Antiproliferative activity against human SiHa cells assessed as inhibition of cell viability incubated for 24 hrs by CCK8 assay; assay type: functional, cell-based
# Ca-Ski [3] = assay: Antiproliferative activity against human Ca Ski cells assessed as inhibition of cell growth at 0.4 to 1.6 uM by CCK8 assay; assay type: functional, cell-based; settings: dose 0.4-1.6 µM, time 6.0 day
# Ca-Ski [4] = assay: Inhibition of colony formation in human Ca Ski cells assessed as reduction in colony forming unit count at 0.1 to 0.4 uM incubated for 24 hrs by crystal violet staining based analysis; assay type: functional, cell-based; settings: dose 0.1-0.4 µM
# SiHa [5] = assay: Inhibition of colony formation in human SiHa cells assessed as reduction in colony forming unit count at 0.1 to 0.4 uM incubated for 24 hrs by crystal violet staining based analysis; assay type: functional, cell-based; settings: dose 0.1-0.4 µM
# HeLa [6] = assay: Inhibition of cell migration in human HeLa cells at 0.6 to 1.2 uM measured after 48 hrs by cell scratch assay; assay type: functional, cell-based; settings: dose 0.6-1.2 µM
# HeLa [7] = assay: Induction of morphological changes in human HeLa cells assessed as increase in inflated cell appearance at 0.6 to 2.4 uM by microphotographic analysis; assay type: functional, cell-based; settings: dose 0.6-2.4 µM
# HeLa [8] = assay: Induction of morphological changes in human HeLa cells assessed as decrease in cell adherence to culture dish at 0.6 to 2.4 uM by microphotographic analysis; assay type: functional, cell-based; settings: dose 0.6-2.4 µM
# C-33-A = assay: Induction of morphological changes in human C-33-A cells assessed as increase in appearance of round cells at 0.3 to 1.2 uM by microphotographic analysis; assay type: functional, cell-based; settings: dose 0.3-1.2 µM
# HeLa [9] = assay: Induction of apoptosis in human HeLa cells assessed as necrotic cells at 0.6 uM incubated for 24 hrs by Annexin V-FITC/PI staining based flow cytometric analysis (reference value: 1.88 %); assay type: functional
# HeLa [10] = assay: Induction of apoptosis in human HeLa cells assessed as necrotic cells at 0.6 uM preincubated with Z-VAD-FMK for 1 hrs followed by compound addition and measured after 24 hrs by Annexin V-FITC/PI staining based flow cytometric analysis (reference value: 2.16 %); assay type: functional
# Ca-Ski [11] = assay: Induction of apoptosis in human Ca Ski cells assessed as late apoptotic cells at 0.5 uM incubated for 24 hrs by Annexin V-FITC/PI staining based flow cytometric analysis (reference value: 5.33 %); assay type: functional
# Ca-Ski [12] = assay: Induction of apoptosis in human Ca Ski cells assessed as viable cells at 1 uM incubated for 24 hrs by Annexin V-FITC/PI staining based flow cytometric analysis (reference value: 86.8 %); assay type: functional; settings: read-out: Activity
# Ca-Ski [13] = assay: Induction of apoptosis in human Ca Ski cells assessed as necrotic cells at 1 uM incubated for 24 hrs by Annexin V-FITC/PI staining based flow cytometric analysis (reference value: 3.15 %); assay type: functional
# Ca-Ski [14] = assay: Induction of apoptosis in human Ca Ski cells assessed as viable cells at 0.5 uM preincubated with Z-VAD-FMK for 1 hrs followed by compound addition and measured after 24 hrs by Annexin V-FITC/PI staining based flow cytometric analysis (reference value: 90.2 %); assay type: functional; settings: read-out: Activity
# Ca-Ski [15] = assay: Induction of apoptosis in human Ca Ski cells assessed as late apoptotic cells at 1 uM preincubated with Z-VAD-FMK for 1 hrs followed by compound addition and measured after 24 hrs by Annexin V-FITC/PI staining based flow cytometric analysis (reference value: 5.30 %); assay type: functional
# HeLa [16] = assay: Effect on caspase 3 expression level in human HeLa cells at 0.3 to 1.2 uM incubated for 24 hrs by Western blot analysis; assay type: functional, cell-based; settings: dose 0.3-1.2 µM
# Ca-Ski [17] = assay: Effect on cleaved caspase 3 expression level in human Ca Ski cells at 0.25 to 1 uM incubated for 24 hrs by Western blot analysis; assay type: functional, cell-based; settings: dose 0.25-1 µM
# HeLa [18] = assay: Antiproliferative activity against p53 deficient human HeLa cells assessed as inhibition of cell viability incubated for 24 hrs by CCK8 assay; assay type: functional, cell-based
# HeLa [19] = assay: Antiproliferative activity against Bax deficient human HeLa cells assessed as inhibition of cell viability incubated for 24 hrs by CCK8 assay; assay type: functional, cell-based
# HeLa [20] = assay: Effect on caspase 3 expression level in p53 deficient human HeLa cells at 0.6 to 1.2 uM incubated for 24 hrs by Western blot analysis; assay type: functional, cell-based; settings: dose 0.6-1.2 µM
# Ca-Ski [21] = assay: Effect on cleaved caspase 3 expression level in p53 deficient human Ca Ski cells at 0.5 to 1 uM incubated for 24 hrs by Western blot analysis; assay type: functional, cell-based; settings: dose 0.5-1 µM
# Ca-Ski [22] = assay: Effect on PARP expression level in Bax deficient human Ca Ski cells at 0.5 to 1 uM incubated for 24 hrs by Western blot analysis; assay type: functional, cell-based; settings: dose 0.5-1 µM
# HeLa [23] = assay: Effect on GPX4 protein expression level in human HeLa cells at 0.6 uM incubated for 24 hrs by Western blot analysis; assay type: functional, cell-based
# Ca-Ski [24] = assay: Induction of autophagy in human Ca Ski cells transfected with mRFP-GFP-LC3 plasmid assessed as decrease in GFP fluorescence at 0.3 to 0.6 uM incubated for 24 hrs by DAPI staining based fluorescence confocal microscopic analysis; assay type: functional, cell-based; settings: dose 0.3-0.6 µM
# HeLa [25] = assay: Induction of autophagy in human HeLa cells assessed as increase in ATG7 protein level at 0.6 to 1.2 uM incubated for 24 hrs by Western blot analysis; assay type: functional, cell-based; settings: dose 0.6-1.2 µM
# Ca-Ski [26] = assay: Induction of autophagy in ATG5 deficient human Ca Ski cells assessed as increase in LC3-II expression at 0.5 to 1 uM incubated for 24 hrs by Western blot analysis; assay type: functional, cell-based; settings: dose 0.5-1 µM
# HeLa [27] = assay: Antitumor activity against human HeLa cells xenografted in female BALB/c mouse assessed as inhibition of tumor progression at 4 to 8 mg/kg administered every four days and measured after 26 days by imaging analysis; assay type: functional, organism-based; settings: dose 4-8 mg/kg, time 26.0 day
# HeLa [28] = assay: Antitumor activity against human HeLa cells xenografted in female BALB/c mouse assessed as reduction in tumor weight at 8 mg/kg administered every four days and measured after 26 days relative to control; assay type: functional; set-up: scale not given: the % may be the effect or the level left; settings: time 26 day
# [29] = Toxicity in female BALB/c mouse xenografted with human HeLa cells assessed as effect on liver at 4 to 8 mg/kg administered every four days and measured after 26 days by H and E staining based analysis; assay type: organism-based; settings: in vivo, 624 h, dose 4-8 mg/kg, time 26 day
# [30] = Toxicity in female BALB/c mouse xenografted with human HeLa cells assessed as effect on platelet level at 4 to 8 mg/kg administered every four days and measured after 26 days; assay type: organism-based; settings: in vivo, 624 h, dose 4-8 mg/kg, time 26 day
# [31] = Toxicity in female BALB/c mouse xenografted with human HeLa cells assessed as effect on WBC level at 4 to 8 mg/kg administered every four days and measured after 26 days; assay type: organism-based; settings: in vivo, 624 h, dose 4-8 mg/kg, time 26 day
# Ca-Ski [32] = assay: Induction of autophagy in human Ca Ski cells transfected with mRFP-GFP-LC3 plasmid assessed as stable RFP fluorescence at 25 uM incubated for 24 hrs by DAPI staining based fluorescence confocal microscopic analysis; assay type: functional, cell-based
# Ca-Ski [33] = assay: Induction of autophagy in human Ca Ski cells transfected with mRFP-GFP-LC3 plasmid assessed as appearance of RFP puncta clusters as aggregates in cytoplasm at 25 uM incubated for 24 hrs by DAPI staining based fluorescence confocal microscopic analysis; assay type: functional, cell-based
compound,measurement,setting,value
COc1cccc(Nc2ccnc3cc(OCCCCCOc4ccc5c(Nc6cccc(OC)c6)ccnc5c4)ccc23)c1,Activity,Ca-Ski [1],Dose-dependent-effect
same,IC50,Ca-Ski [1],775 nM
same,Activity,SiHa [2],Dose-dependent-effect
same,IC50,SiHa [2],1450 nM
same,Activity,Ca-Ski [3],Time-dependent-effect
same,inhibition,Ca-Ski [4],Active
same,inhibition,SiHa [5],Active
same,inhibition,HeLa [6],Active
same,Activity,HeLa [7],Active
same,Activity,HeLa [8],Active
same,Activity,C-33-A,Active
same,Activity,HeLa [9],2.66%
same,Activity,HeLa [10],1.01%
same,Activity,Ca-Ski [11],5.88%
same,viability at 1 µM,Ca-Ski [12],82%
same,Activity,Ca-Ski [13],2.98%
same,viability at 0.5 µM,Ca-Ski [14],73.7%
same,Activity,Ca-Ski [15],6.59%
same,Activity,HeLa [16],inactive
same,Activity,Ca-Ski [17],inactive
same,IC50,HeLa [18],1110 nM
same,IC50,HeLa [19],1320 nM
same,Activity,HeLa [20],inactive
same,Activity,Ca-Ski [21],inactive
same,Activity,Ca-Ski [22],inactive
same,Activity,HeLa [23],Moderate_effect
same,Activity,Ca-Ski [24],Active
same,Activity,HeLa [25],Active
same,Activity,Ca-Ski [26],inactive
same,Activity,HeLa [27],Active
same,Activity,HeLa [28],81.76%
same,Activity,[29],Non-toxic
same,Activity,[30],Non-toxic
same,Activity,[31],Non-toxic
same,Activity,Ca-Ski [32],Active
same,Activity,Ca-Ski [33],Active
